{"source": "paper PMC12019328", "about": "“Discovery of an ApoE4-targeted small-molecule SirT1 enhancer for the treatment of Alzheimer’s disease” (Scientific Reports, 2025)", "key": {"[1]": {"test_system": "SirT1 mRNA", "assay": "Hippocampal SirT1 mRNA in ApoE4-TR:5xFAD mice", "assay_type": "in vivo", "conditions": "20 mg/Kg BID, 56 days, vs vehicle", "method": "The active (-) enantiomer, DDL-218, underwent efficacy testing in ApoE4-TR:5xFAD mice[27] that were 6-7.5 months old at the start of treatment. ApoE4-TR:5xFAD male and female mice received either 20 mg/Kg DDL-218 BID (~ 8- to10-hour interval; total daily dose of 40 mkd) on weekdays and a single 40 mg/Kg dose on weekends (n = 12) or vehicle-only (n = 11); 8 C57BL/6 mice received vehicle-only as behavioral controls. Dosing was by the oral route and by oral feeding using a pipette as previously described, not gavage, as it is safer for repeated oral dosing than gavage. The dose of 20 mg/kg BID (40 mkd) was selected based on findings from PK analysis and was the highest feasible in the formulation used for oral feeding (compound is first solubilized in water, then mixed strawberry syrup diluted in water, for a final vehicle that is 25% syrup and 75% water). […]\nTotal RNA was isolated from cells or brain tissue (Qiagen RNEasy kit). Total RNA (0.5–1.0 µg) mRNA was then converted to cDNA (SuperScript™ III First-Strand Synthesis SuperMix kit; Thermo Fisher), and gene mRNA levels were measured using a gene-specific qRT-PCR Taqman assays (Thermo Fisher). Gene mRNA levels were normalized to GAPDH mRNA levels measured either in the same cDNA sample or in the same qPCR reaction using multiplexing of gene-of-interest/VIC and GAPDH/FAM, normalized by the delta-delta-Ct method."}, "[2]": {"test_system": "SirT1 protein", "assay": "SirT1 protein levels in hippocampi of ApoE4-TR:5xFAD mice", "assay_type": "in vivo", "conditions": "56 days, vs vehicle, not statistically significant", "method": "The active (-) enantiomer, DDL-218, underwent efficacy testing in ApoE4-TR:5xFAD mice[27] that were 6-7.5 months old at the start of treatment. ApoE4-TR:5xFAD male and female mice received either 20 mg/Kg DDL-218 BID (~ 8- to10-hour interval; total daily dose of 40 mkd) on weekdays and a single 40 mg/Kg dose on weekends (n = 12) or vehicle-only (n = 11); 8 C57BL/6 mice received vehicle-only as behavioral controls. Dosing was by the oral route and by oral feeding using a pipette as previously described, not gavage, as it is safer for repeated oral dosing than gavage. The dose of 20 mg/kg BID (40 mkd) was selected based on findings from PK analysis and was the highest feasible in the formulation used for oral feeding (compound is first solubilized in water, then mixed strawberry syrup diluted in water, for a final vehicle that is 25% syrup and 75% water). The final concentration of DDL-218 was chosen to deliver 20 mg/Kg in a volume of 10–20 µL (adjusted to the weight of each mouse). Mice were treated for 56 days (8 weeks); in week 7, mice underwent Barnes maze testing[29] as described below.\nOn Day 56, mice were euthanized 2 h after the a.m. dose by pentobarbital over-anesthesia and cardiac puncture for the collection of blood in EDTA tubes on ice for the isolation of plasma by centrifugation at 3,000 x g for 10 min at 4 °C. Mice were perfused with saline at 5 ml/min. […]"}}}
{"compound": "CC(N)C(=O)OC(C)(C)Cc1ccncc1", "note": "(centres unmarked) [DDL-218]", "values": [{"measurement": "hippocampal SirT1 mRNA", "setting": "[1]", "value": "significantly increased"}, {"measurement": "increase of mean SirT1 protein levels in hippocampi", "setting": "[2]", "value": "~ 20%"}]}
